“Also recorded” adds a separate entry of the source. Where two headings read alike, the source gives them in different places.
Assays:
14 myeloma cell lines = assay: Cell proliferation assay (tritiated thymidine incorporation), panel of myeloma cell lines; format: cell-based; conditions: 14 human myeloma cell lines, 0.04-10 μM, 4 days culture
Procedure: Myeloma cell lines were passaged every 3-4 days in RPMI640 and 10% fetal calf serum (FCS). For the IL-6 dependent cell lines, 2 ng/ml of freshly thawed IL-6 (Abcys, France) was added at the beginning of the culture. Each cell line has unique phenotypic and HLA characteristics that make it possible to periodically check their identity.
The following cell lines were obtained in B. Klein's laboratory: XG-1, XG-2, XG-3, XG-4, XG-6, XG-7, XG-11, XG-12, XG-13, XG-14, XG-19, XG-20. (Zhang, et al., 1994; Rebouissou, et al., 1998)
RPMI8226 and L363 cell lines were purchased from ATCC.
Myeloma cells were harvested in the exponential growth phase (at day 3 after culture passage when the cell concentration is around 5×10^5 cells/ml). Cells were washed twice, cultured for 3 hours in RPMI1640 and 10% FCS, washed twice. This makes it possible to remove cell-bound growth factors (in particular recombinant IL-6). […]
Cells were cultured for 4 days. […] Cells were then extracted with a cell collector and the thymidine incorporation was determined using a beta cell counter.
For each experiment, the mean tritiated thymidine incorporations (mean values determined on three culture wells) were plotted against the logarithmic concentrations of the compound. The curves were fitted with exponential regression, which was determined using the concentrations defining the inhibition response (usually 3-4 concentrations). […]

[1] = tested on: myeloma cell lines (XG-3 and XG-12); assay: Induction of apoptosis (annexin V) in myeloma cell lines; format: cell-based, human; conditions: XG-3 and XG-12, IC10, IC50, IC90 doses, four day culture
Description: (§1) Apoptotic cells were detected using fluorescein isothiocyanate-labelled annexin V (FITC-annexin-V, Boehringer Mannheim). Annexin V has a high affinity for phosphatidylserine present on the outer cytoplasmic membrane of apoptotic cells. Cells were washed, labeled with FITC-annexin-V according to the manufacturer's recommendations and analyzed with a FACScan flow cytometer using Cell Quest software (Becton Dickinson, Moutain View, Calif., USA).
(§2) Two myeloma cell lines (XG-3 and XG-12) that are sensitive to compound A (1-(4-{4-[4-(4-chlorophenyl)-pyrimidin-2-ylamino]-benzoyl}-piperazin-1-yl)-ethanone) were selected for the study. To assess the effect of compound A on myeloma cell survival, the percentage apoptotic cells was determined using binding of annexin V to apoptotic cells. The effect of compound A on the cell cycle was assessed by evaluating the percentage of cells in the S phase of the cell cycle by incorporation of BrdU-FITC. Apoptosis, cell cycle and cell numeration were evaluated daily on a four day culture period on the cell lines using the IC10, IC50 and I90 respective doses of compound A.

XG-3 myeloma cell line [2] = assay: Detection of apoptosis (FITC-annexin V), XG-3; format: cell-based, human; conditions: day 3 of culture
Description: as §1, §2

XG-12 myeloma cell line = assay: Detection of apoptosis (FITC-annexin V), XG-12; format: cell-based, human; conditions: day 3 of culture
Description: as §1, §2

XG-3 myeloma cell line [3] = assay: Cell cycle measurement (BrdU/PI, S phase), XG-3; format: cell-based, human; conditions: day 3 of culture
Procedure: The cell cycle distribution of the cell lines was assessed by flow cytometry analysis by propidium iodide (PI) and bromodeoxyuridine (BrdU) double-staining. Thirty minutes before stopping the culture, BrdU (10 μM) were added to the cultures and then the cells were collected by centrifugation, washed twice in phosphate buffer saline (PBS) and fixed in 70% ethanol for 20 minutes at room temperature. After two washes with PBS, cells were resuspended in 50 μL of 3N HCl, 0.5% Tween 20 and incubated 20 minutes at 20° C. to denature DNA. The cells were then recovered by centrifugation, resuspended in 250 μL of 10 mM sodium tetraborate to neutralize the reaction, washed twice with PBS, 0.05% Tween 20, and incubated with 20 μL of anti-BrdU-FITC (BD Biosciences). After two additional washes, the cells were resuspended in 500 μL of PBS, 0.05% Tween 20 containing 10 μg/ml PI. The fluorescence of FL1-H (BrdU) and FL2-A (PI) were analyzed on a FACScan flow cytometer using Cell Quest software (Becton Dickinson).
as §2

L363 myeloma cell line = assay: Cell proliferation assay (tritiated thymidine incorporation), L363; format: cell-based, human; conditions: alone or with fixed Velcade/Melphalan; for IC50: concentration of compound A yielding 50% inhibition of proliferation, read-out: IC50; for IC90: concentration of compound A yielding 90% inhibition of proliferation
Procedure: Myeloma cells were harvested in the exponential growth phase (at day 3 after culture passage when the cell concentration is around 5×10^5 cells/ml). Cells were washed twice, cultured for 3 hours in RPMI1640 and 10% FCS, washed twice. This makes it possible to remove cell-bound growth factors (in particular recombinant IL-6). Then cells are plated in 96-well flat-bottomed microplates at various concentrations depending on their doubling time: • 5×10^3 cells/well in 100 μl for the cell lines: XG-1, XG-7 • 10^4 cells/well in […] for the cell lines: XG-2, XG-4, XG-6, XG-11, PRMI8226, L363 • 2×10^4 cells/well in 100 μl for the cell lines: XG-3, XG-12, XG-13, XG-14, XG-19, XG-20
The culture medium used were: • PRMI1640, 10% FCS and 0.5 ng/ml of IL-6 for XG-1, XG-2, XG-3, XG-4, XG-6, XG-7, XG-11, XG-12, XG-13, XG-19, XG-20 cells • X-VIVO20 and 0.5 ng/ml IL-6 for XG-14 cells • PRMI1640 and 10% FCS for RPMI8226 and L363 cells
The diluted compounds, DMSO or control culture medium were added in 100 μl at the start of the culture. Three culture wells were done for one compound dilution and the experiments were done twice (finally six culture wells for one compound dilution).
Cells were cultured for 4 days. Eight hours before the end of the culture, 0.5 μCi of tritiated thymidine were added in 50 μl of RPMI1640 and 10% FCS. Cells were then extracted with a cell collector and the thymidine incorporation was determined using a beta cell counter.
For each experiment, the mean tritiated thymidine incorporations (mean values determined on three culture wells) were plotted against the logarithmic concentrations of the compound. The curves were fitted with exponential regression, which was determined using the concentrations defining the inhibition response (usually 3-4 concentrations).
The concentrations yielding 50% and 90% inhibition of the proliferation of myeloma cells were determined with these regression curves.
The concentration yielding 10% (IC10) or 50% (IC50) inhibition of the myeloma cell lines were determined and the data are listed in Table 2.
Compound A was tested in combination with melphalan or Velcade. Increasing concentration of compound A (0, 0.01, 0.03, 0.12, 0.37, 1.1, 3.1, 10, 30 μM) were applied on 4 myeloma cell lines alone or in combination with Velcade or melphalan at concentration yielding around 10% or 50% inhibition.

[4] = XG-3, compound A at IC10 concentration
[5] = XG-3, compound A at IC50 concentration
[6] = XG-3, compound A at IC90 concentration

CC(=O)N1CCN(C(=O)c2ccc(Nc3nccc(-c4ccc(Cl)cc4)n3)cc2)CC1 [Compound A, 1-(4-{4-[4-(4-Chloro-phenyl)-pyrimidin-2-ylamino]-benzoyl}-piperazin-1-yl)-ethanone]
inhibition of the proliferation of myeloma cell lines (14 myeloma cell lines): full inhibition of the proliferation of 13 out 14 human myeloma cells
induction of apoptosis of myeloma cell lines [1]: induced apoptosis of myeloma cell lines; also recorded: dose- and time-dependent
Annexin V (%) percentage of apoptotic cells (XG-3 myeloma cell line [2]; [4]): 29.2%
Annexin V (%) percentage of apoptotic cells (XG-3 myeloma cell line [2]; [5]): 30.7%
Annexin V (%) percentage of apoptotic cells (XG-3 myeloma cell line [2]; [6]): 48.2%
Annexin V (%) percentage of apoptotic cells (XG-12 myeloma cell line; XG-12, compound A at IC50 concentration): 39.5%
Annexin V (%) percentage of apoptotic cells (XG-12 myeloma cell line; XG-12, compound A at IC90 concentration): 79.8%
S phase (%) percentage of cells in the S phase (XG-3 myeloma cell line [3]; [4]): 32.1%
S phase (%) percentage of cells in the S phase (XG-3 myeloma cell line [3]; [5]): 29.2%
S phase (%) percentage of cells in the S phase (XG-3 myeloma cell line [3]; [6]): 15.3%
IC50 (L363 myeloma cell line; Homo sapiens, L-363, L363): 2.33 µM
IC90 (L363 myeloma cell line; Homo sapiens, L-363, L363): 10.1 µM
IC50 (L363 myeloma cell line; L363): 1.79 µM
IC90 (L363 myeloma cell line; L363): 9.41 µM
